The record followed here is patent US20250268903A1, “RXFP1 AGONISTS” (BRISTOL-MYERS SQUIBB COMPANY, priority 2021, published 2025).

SMILES strings stand for the structures.

The target in this test is T1, human RXFP1 (Homo sapiens, UniProt Q9HBX9).
T1 construct: expressed in transfected cells
T1 sequence (Q9HBX9 1-757): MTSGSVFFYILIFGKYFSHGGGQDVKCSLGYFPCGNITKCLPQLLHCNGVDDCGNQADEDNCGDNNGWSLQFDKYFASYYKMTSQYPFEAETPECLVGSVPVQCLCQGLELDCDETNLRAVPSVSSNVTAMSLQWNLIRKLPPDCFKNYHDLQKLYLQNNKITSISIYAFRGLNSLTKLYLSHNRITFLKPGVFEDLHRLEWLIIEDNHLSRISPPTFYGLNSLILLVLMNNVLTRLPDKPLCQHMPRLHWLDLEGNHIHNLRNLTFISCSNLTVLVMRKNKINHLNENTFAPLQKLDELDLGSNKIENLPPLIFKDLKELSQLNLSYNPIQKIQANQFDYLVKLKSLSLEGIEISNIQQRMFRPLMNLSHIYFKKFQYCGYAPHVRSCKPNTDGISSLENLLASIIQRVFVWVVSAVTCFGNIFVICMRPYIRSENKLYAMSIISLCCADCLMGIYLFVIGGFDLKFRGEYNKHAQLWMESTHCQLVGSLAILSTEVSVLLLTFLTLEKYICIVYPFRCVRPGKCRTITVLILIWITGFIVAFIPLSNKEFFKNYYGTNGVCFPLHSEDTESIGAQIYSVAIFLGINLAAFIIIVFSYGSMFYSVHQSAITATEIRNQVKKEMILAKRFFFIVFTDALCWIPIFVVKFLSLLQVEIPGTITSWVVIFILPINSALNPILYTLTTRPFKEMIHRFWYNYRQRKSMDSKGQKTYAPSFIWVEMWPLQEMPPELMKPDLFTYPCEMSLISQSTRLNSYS
Nature of the test: hRXFP1 HEK293 cAMP assay (HTRF). As to conditions: HEK293 cells stably expressing human RXFP1, 30 min at room temperature. The test is classed as cell-based. The method in brief: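 In a stable human RXFP1 HEK293 line, compounds acted for 30 min at RT in buffer with 0.5 mM IBMX. HTRF then quantified cellular cAMP.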
Take `COc1ccc(CCC(C)(C)O)cc1C(=O)NC1C2CCC(/C2=C/CC2CCC2)[C@@H]1C(=O)Nc1ccc(F)c(C(F)(F)F)c1` (stereo partly drawn) [Example 174, (7Z)-7-(2-cyclobutylethylidene)-N-[4-fluoro-3-(trifluoromethyl)phe-nyl]-3-[5-(3-hydroxy-3-methylbutyl)-2-methoxybenzamido] bicyclo[2.2.1]heptane-2-carboxamide]: the response was half-maximal at 66 nM (EC50).

The molecule `COc1ccc(C2CC2CO)cc1C(=O)N[C@@H]1C2CCC(/C2=C/C(F)(F)F)[C@@H]1C(=O)Nc1ccc(F)c(C(F)(F)F)c1` (single isomer, unassigned) [Example 65] had a concentration giving a half-maximal response (EC50) of 250 nM. `COc1ccc(/C=C/C(=O)N2CCOCC2)cc1C(=O)N[C@H]1[C@@H](C(=O)Nc2ccc(F)c(C(F)(F)F)c2)[C@H]2CC[C@@H]1/C2=C\C1CC1` [Example 306, (1R,2S,3R,4R,7Z)-7-(cyclopropyl-methylidene)-N-[4-fluoro-3-(trifluoromethyl)phenyl]-3-{2-methoxy-5-[(1E)-3-(morpholin-4-yl)-3-oxoprop-1-en-1-yl]benzamido} bicyclo[2.2.1] heptane-2-carboxamide] displayed a half-maximal effective concentration (EC50) of 5.26 nM. For the molecule `COc1ccc(CCCNC[C@H](O)C(F)(F)F)cc1C(=O)N[C@@H]1C2CCC(/C2=C/C(F)(F)F)[C@@H]1C(=O)Nc1ccc(F)c(C(F)(F)F)c1` (stereo partly drawn) [Example 118, (2S,3R,7Z)-N-[4-fluoro-3-(trifluoromethyl)phe-nyl]-3-[2-methoxy-5-(3-{[(2S)-3,3,3-trifluoro-2-hydroxypropyl]amino}propyl)benzamido]-7-(2,2,2-trifluoroethylidene)bi-cyclo[2.2.1]heptane-2-carboxamide], the half-maximal effective concentration (EC50) is 1780 nM. `COc1ccc(S(=O)(=O)N2CCN3C(=O)CCC3C2)cc1C(=O)N[C@H]1[C@@H](C(=O)Nc2ccc(F)c(C(F)(F)F)c2)[C@H]2CC[C@@H]1/C2=C\C1CC1` (stereo partly drawn) [Example 223, (1R,2S,3R,4R,7Z)-7-(cyclopropyl-methylidene)-N-[4-fluoro-3-(trifluoromethyl)phenyl]-3-[2-methoxy-5-({6-oxo-octahydropyrrolo[1,2-a]piperazin-2-yl}sulfonyl)benzamido] bicyclo[2.2.1] heptane-2-carboxamide] registered an EC50 of 145 nM. For `COc1ccc(Cc2ccc(F)cc2)cc1C(=O)N[C@H]1[C@@H](C(=O)Nc2ccc(F)c(C(F)(F)F)c2)[C@H]2CC[C@@H]1/C2=C\C(F)(F)F` [Example 155, (1R,2S,3R,4R,Z)—N-(4-fluoro-3-(trifluoromethyl)phenyl)-3-(5-(4-fluorobenzyl)-2-methoxybenzamido)-7-(2,2,2-trifluoroethylidene) bicyclo[2.2.1]heptane-2-carboxamide] the value was 427 nM; for `COc1ccc(C2CCCCC2O)cc1C(=O)N[C@@H]1C2CCC(/C2=C/C(F)(F)F)[C@@H]1C(=O)Nc1ccc(F)c(C(F)(F)F)c1` (single isomer, unassigned) [Example 58], 1200 nM. For the molecule `COc1ccc(CCCN)cc1C(=O)N[C@H]1[C@@H](C(=O)Nc2ccc(F)c(C(F)(F)F)c2)[C@H]2CC[C@@H]1/C2=C\C(F)(F)F` [Example 110, (1R,2S,3R,4R,Z)-3-(5-(3-aminopropyl)-2-methoxybenzamido)-N-(4-fluoro-3-(trifluoromethyl)phenyl)-7-(2,2,2-trifluoroethylidene) bicyclo[2.2.1]heptane-2-carboxamide], the EC50 was 2520 nM.

As for `COc1ccc(C2CC2CO)cc1C(=O)N[C@@H]1C2CCC(/C2=C/C(F)(F)F)[C@@H]1C(=O)Nc1ccc(F)c(C(F)(F)F)c1` (single isomer, unassigned) [Example 64], the concentration giving a half-maximal response (EC50) was 252 nM. The value for `COc1ccc(CCCNC(=O)[C@H](C)O)cc1C(=O)N[C@@H]1C2CCC(/C2=C/C(F)(F)F)[C@@H]1C(=O)Nc1ccc(F)c(C(F)(F)F)c1` (stereo partly drawn) [Example 114] was 457 nM; that for `COc1ccc(C2CC3CC(CO)CC32)cc1C(=O)N[C@H]1[C@@H](C(=O)Nc2ccc(F)c(C(F)(F)F)c2)[C@H]2CC[C@@H]1/C2=C\C1CC1` (single isomer, unassigned) [Example 351] was 27.7 nM; that for `COc1ccc(/C=C/C(=O)N[C@H]2C[C@H](O)C2)cc1C(=O)N[C@@H]1C2CCC(/C2=C/C2CC2)[C@@H]1C(=O)Nc1ccc(F)c(C(F)(F)F)c1` (stereo partly drawn) [Example 127, (2S,3R,7Z)-7-(cyclopropylmethyli-dene)-N-[4-fluoro-3-(trifluoromethyl)phe-nyl]-3-{2-methoxy-5-[(1E)-2-{[(1r,3r)-3-hydroxycyclobutyl]carbamoyl}eth-1-en-1-yl]benzamido}bicyclo [2.2.1]heptane-2-carboxamide] was 74 nM. Turning to `COc1ccc(C2CCCC(OC(=O)Nc3ccccc3)C2)cc1C(=O)N[C@@H]1C2CCC(/C2=C/C(F)(F)F)[C@@H]1C(=O)Nc1ccc(F)c(C(F)(F)F)c1` (single isomer, unassigned) [Example 41], a half-maximal effect (EC50) was put at 201 nM. In the case of `COc1ccc(C(=O)N2CCC(O)CC2)cc1C(=O)N[C@H]1[C@@H](C(=O)Nc2ccc(F)c(C(F)(F)F)c2)[C@H]2CC[C@@H]1/C2=C\C1CC1` [Example 230, (1R,2S,3R,4R,7Z)-7-(cyclopropyl-methylidene)-N-[4-fluoro-3-(trifluoromethyl)phenyl]-3-[5-(4-hydroxypiperidine-1-carbonyl)-2-methoxybenzamido] bicyclo[2.2.1] heptane-2-carboxamide], the midpoint of the response, the EC50, lay at 26 nM. For `COc1ccc(/C=C/C(=O)N2CCC(S(C)(=O)=O)CC2)cc1C(=O)N[C@H]1[C@@H](C(=O)Nc2ccc(F)c(C(F)(F)F)c2)[C@H]2CC[C@@H]1/C2=C\C1CC1` [Example 317, (1R,2S,3R,4R,7Z)-7-(cyclopropyl-methylidene)-N-[4-fluoro-3-(trifluoromethyl)phenyl]-3-{5-[(1E)-3-(4-methanesulfonyl-piperidin-1-yl)-3-oxoprop-1-en-1-yl]-2-methoxybenzamido} bicyclo[2.2.1]heptane-2-carboxamide] the value was 140 nM; for `COc1ccc(CCCO)cc1C(=O)N[C@H]1[C@@H](C(=O)Nc2ccc(F)c(C(F)(F)F)c2)[C@H]2CC[C@@H]1/C2=C\C(C)C` [Example 157, (1R,2S,3R,4R,Z)—N-(4-fluoro-3-(trifluoromethyl)phenyl)-3-(5-(3-hydroxypropyl)-2-methoxybenzamido)-7-(2-methylpropylidene) bicyclo[2.2.1]heptane-2-carboxamide], 54 nM.

As for `COc1ccc(S(=O)(=O)NC2CCOC2)cc1C(=O)NC1C2CCC(/C2=C/C(F)(F)F)[C@@H]1C(=O)Nc1ccc(F)c(C(F)(F)F)c1` (stereo partly drawn) [Example 198, (2S,3R,7Z)-N-[4-fluoro-3-(trifluoromethyl)phe-nyl]-3-{2-methoxy-5-[(oxolan-3-yl)sulfamoyl]benza-mido}-7-(2,2,2-trifluoroethylidene)bi-cyclo[2.2.1]heptane-2-carboxamide], the response was half-maximal at 1920 nM (EC50). `O=C(N[C@H]1[C@@H](C(=O)Nc2ccc(F)c(C(F)(F)F)c2)[C@H]2CC[C@@H]1/C2=C\C(F)(F)F)c1cc(C#CCO)ccc1OCCO` [Example 106, (1R,2S,3R,4R,Z)—N-(4-fluoro-3-(trifluoromethyl)phenyl)-3-(2-(2-hydroxyethoxy)-5-(3-hydroxyprop-1-yn-1-yl)benzamido)-7-(2,2,2-trifluoroethylidene) bicyclo[2.2.1]heptane-2-carboxamide] yielded an EC50 of 377 nM.

As usually defined, the EC50 is the concentration that produces a half-maximal response. Higher therefore signals weaker potency.
